From patent publication US12162878B2 (HINOVA PHARMACEUTICALS INC., priority 2018, dated 2024)

How the values were obtained:
Format in all cases: cell-based, human
CWR22RV1 cells [1] = experiment: Inhibition of proliferation of CWR22RV1 cells (CCK-8); conditions: Homo sapiens, CWR22Rv1, 144 h, 6 days
Method in brief: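 Cells seeded at 1500/well, cultured overnight, then exposed to compounds in 3-fold dilutions (9 concentrations from 10 μM top final, 0.1% DMSO) for 6 days at 37 °C. Viability read by CCK-8 absorbance at 450 nm after 2.5 h; IC50 from dose-response inhibition fit.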

MCF-7 cells = experiment: Inhibition of proliferation of MCF-7 cells (CCK-8)
Description: (§1) • MCF-7 cell line (Cell Bank of Chinese Academy of Sciences, TCHu74) • FBS (Gibco, Cat. No. 10099-141) • 0.01M PBS (Biosharp, Cat. No. 162262) • RIPM1640 (Hyclone, Cat. No. 308090.01) • Penicillin-Streptomycin (Hyclone, Cat. No. SV30010) • Cell counting kit-8 (Signalway Antibody, Cat. No. CP002) • DMSO (Sigma, Cat. No. D5879) • Centrifuge Tube, 15 ml (Excell Bio, Cat. No. CS015-0001) • Cell Culture Dish, (Excell Bio, Cat. No. CS016-0128) • 96-well cell culture cluster (Corning, Cat. No. 3599) 3. Experimental Method
1) MCF-7 cells were subcultured in cell culture media, and the cells in good growth condition were seeded in a 96-well plate, 80 μL for each well, thus the number of cells per well was 1000, then the plate was cultured overnight in a 37° C., 5% CO2 cell incubator.
(§2) 2) The drug was prepared with dimethyl sulfoxide (DMSO) as a 10 mM stock solution. Prior to use, the solution was diluted 3 times with DMSO, and then diluted with a 3-fold gradient to obtain 9 concentration gradients. Then, each concentration of the compound was further diluted 200 times with the culture media (to ensure that DMSO concentration in the culture system was 0.1%), 2 repeat wells for each concentration. The diluted solution of each compound (20 μL) was added to the cell culture well (with a final concentration of 10 μM, 3.3 μM, 1.1 μM . . . ), and shaken gently for mixing.
In addition, three negative control wells containing only cells and three blank control wells containing only culture medium (20 μL DMSO diluted 200 times with culture medium being added to six wells) were included.
(§3) (1) After culturing for 6 days, 10 μL CCK-8 was added to each well and cultured for additional 2.5 h in a 37° C., 5% CO2 cell incubator.
(§4) (2) The absorbance (OD value) at 450 nm was measured with a multifunctional microplate reader.
(§5) (3) The data was analyzed by the Dose-response-inhibition equation in the software GraphPad Prism6, and the IC50 value was obtained.

MDA-MB-231 cells = experiment: Inhibition of proliferation of MDA-MB-231 cells (CCK-8)
Description: as §1, with “MDA-MB-231” for “MCF-7”, “TCHu104)” for “TCHu74)”
1) MDA-MB-231 cells were subcultured in cell culture media, and the cells in good growth condition were seeded in a 96-well plate, 80 μL for each well, thus the number of cells per well was 1500, then the plate was cultured overnight in a 37° C., 5% CO2 cell incubator.
as §2, with “mixing. In addition, three negative control wells containing only cells and three blank control wells containing only culture medium (20 μL DMSO diluted 200 times with culture medium being added to six wells) were included.” for “mixing.”
as §3, §4, §5

MDA-MB-453 cells = experiment: Inhibition of proliferation of MDA-MB-453 cells (CCK-8); conditions: Homo sapiens, 144 h, 6 days, CCK-8
Description: as §1, with “MDA-MB-453” for “MCF-7”, “TCHu35)” for “TCHu74)”
1) MDA-MB-453 cells were subcultured in cell culture media, and the cells in good growth condition were seeded in a 96-well plate, 80 μL for each well, thus the number of cells per well was 1500, then the plate was cultured overnight in a 37° C., 5% CO2 cell incubator.
as §2, with “mixing. In addition, three negative control wells containing only cells and three blank control wells containing only culture medium (20 μL DMSO diluted 200 times with culture medium being added to six wells) were included.” for “mixing.”
as §3, §4, §5

Vcap cells [2] = experiment: Inhibition of proliferation of Vcap cells (CCK-8)
Description: as §1, with “Vcap” for “MCF-7”, “TCHu220)” for “TCHu74)”, “DMEM HIGH Glucose” for “RIPM1640”, “SH30243.01)” for “308090.01)”, “2.” for “3.”
1) Vcap cells were subcultured in cell culture media, and the cells in good growth condition were seeded in a 96-well plate, 80 μL for each well, thus the number of cells per well was 10000, then the plate was cultured overnight in a 37° C., 5% CO2 cell incubator.
as §2, with “mixing. In addition, three negative control wells containing only cells and three blank control wells containing only culture medium (20 μL DMSO diluted 200 times with culture medium being added to six wells) were included.” for “mixing.”
as §3, §4, §5

CWR22RV1 cells [3] = experiment: Compound in combination with androgen receptor inhibitor HC-1119, proliferation of CWR22RV1 cells (CCK-8); conditions: for IC50: Homo sapiens, CWR22Rv1, 144 h, 6 days, read-out: IC50 for inhibition on the activity of CWR22RV1
Description: as §1, with “CWR22RV1” for “MCF-7”, “TCHu100)” for “TCHu74)”, “3599)” for “3599) 3.”, “Method:” for “Method”
1) CWR22RV1 cells were subcultured in cell culture media, and the cells in good growth condition were seeded in a 96-well plate, 60 μL for each well, thus the number of cells per well was 2000, then the plate was cultured overnight in a 37° C., 5% CO2 cell incubator.
(§6) 2) The drug was prepared with dimethyl sulfoxide (DMSO) as a 10 mM stock solution. Prior to use, the solution was diluted 3 times with DMSO, and then diluted with a 3-fold gradient to obtain 9 concentration gradients. Then, each concentration of the compound was further diluted 200 times with the culture media (to ensure that DMSO concentration in the culture system was 0.1%), 2 repeat wells for each concentration. The diluted solution of each compound (20 μL) was added to the cell culture well (with a final concentration of 10 μM, 3.3 μM, 1.1 μM . . . ); while the solution of HC-1119 was diluted with culture media to the concentrations of 50 μM and 15 μM, respectively, and the diluted solution of HC-1119 was added to the corresponding cell culture well (with a final concentration of 10 μM, 3 μM), then shaken gently for mixing. In addition, three negative control wells containing only cells and three blank control wells containing only culture media (20 μL DMSO diluted 200 times with culture media being added to six wells) were included.
as §3, §4, §5

Vcap cells [4] = experiment: Compound in combination with androgen receptor inhibitor HC-1119, proliferation of Vcap cells (CCK-8); conditions: for IC50: Homo sapiens, VCaP, 144 h, 6 days, read-out: IC50 for inhibition on the activity of Vcap
Description: as §1, with “Vcap” for “MCF-7”, “TCHu220)” for “TCHu74)”, “DMEM HIGH Glucose” for “RIPM1640”, “SH30243.01)” for “308090.01)”, “Dish” for “Dish,”, “2.” for “3.”
1) Vcap cells were subcultured in cell culture media, and the cells in good growth condition were seeded in a 96-well plate, 60 μL for each well, thus the number of cells per well was 10000, then the plate was cultured overnight in a 37° C., 5% CO2 cell incubator.
as §6, with “10 μM, 1 μM), then” for “10 μM, 3 μM), then”
as §3, §4, §5

[5] = Homo sapiens, 144 h, 6 days, CCK-8

Compound | IC50 (CWR22RV1 cells [1]) | inhibitory action on MCF-7 cells (in words) (MCF-7 cells) | IC50 (MCF-7 cells; Homo sapiens, MCF7, 144 h, 6 days, CCK-8) | inhibitory action on MDA-MB-231 cells (in words) (MDA-MB-231 cells) | IC50 (MDA-MB-231 cells; [5]) | IC50 (MDA-MB-453 cells) | inhibitory action on Vcap cells (in words) (Vcap cells [2]) | IC50 (Vcap cells [2]; [5]) | IC50 (CWR22RV1 cells [3]; compound alone, CWR22RV1 cells) | IC50 (CWR22RV1 cells [3]; in combination with 3 μM HC-1119, CWR22RV1 cells) | IC50 (CWR22RV1 cells [3]; in combination with 10 μM HC-1119, CWR22RV1 cells) | effect of combination with HC-1119 on inhibitory action on CWR22RV1 cells (in words) (CWR22RV1 cells [3]; in combination with HC-1119, CWR22RV1 cells) | IC50 (Vcap cells [4]; compound alone, Vcap cells) | IC50 (Vcap cells [4]; in combination with 1 μM HC-1119, Vcap cells) | IC50 (Vcap cells [4]; in combination with 10 μM HC-1119, Vcap cells) | effect of combination with HC-1119 on inhibitory action on Vcap cells (in words) (Vcap cells [4]; in combination with HC-1119, Vcap cells)
Cn1cc(-c2cc(S(C)(=O)=O)ccc2N2CCC3(CC2)CC3(F)F)c2cc[nH]c2c1=O [Compound 178, 4-(2-(1,1-difluoro-6-aza-spiro[2.5]octan-6-yl)-5-(methylsulfonyl)phenyl)-6-methyl-1H-pyrrolo[2,3-c]pyridin-7(6H)-one] | 5 nM | effective inhibitory action | 29 nM | effective inhibitory action | 39 nM | 720 nM | – | – | – | – | – | – | – | – | – | –
[2H]C([2H])([2H])n1cc(-c2cc(S(=O)(=O)CC)ccc2N2CCC3(CC2)CC3(F)F)c2cc[nH]c2c1=O [Compound 231, 4-(2-(1,1-difluoro-6-aza-spiro[2.5]octan-6-yl)-5-(ethylsulfonyl)phenyl)-6-trideuteromethyl-1H-pyrrolo[2,3-c]pyridin-7(6H)-one] | – | – | – | – | – | – | effective inhibitory action | 3.9 nM | 1.8 nM | 0.65 nM | 0.51 nM | improve the inhibitory action | 3.9 nM | 0.076 nM | 0.027 nM | improve the inhibitory action
